Measured values: patent US4642309A, “Indolin-2-one derivatives preparation thereof and intermediates for the preparation thereof” (Boehringer Mannheim GmbH, priority 1983, dated 1987)
Where two headings read alike, the source gives them in different places.

Key:
[1] = tested on: cardiac β-receptors (beta 1); experiment: Beta-receptor blocking activity: inhibition of isoprenaline (1 mcg/kg i.v.) induced heart rate increase (beta 1-blockage) in rabbits; format: in vivo, rabbit; settings: for β1-Blockade ID30 fcor / β1-Blockade ID50 fcor: i.v., rabbits; for β1-Blockade ID30 fcor: 30% inhibition of isoprenaline effect on heart rate; for β1-Blockade ID50 fcor: 50% inhibition of isoprenaline effect on heart rate
Protocol: Rabbits were fixed in wooden cages and the blood pressure derived using a catheter placed in the lateral ear artery (details as under 2.). From the blood pressure pulsations, the heart rate was digitally read using an integrator. The beta-receptor blocking quality was determined by measuring inhibitory action against 1 mcg/kg i.v. isoprenaline.

[2] = tested on: CSE reflex (arterial blood pressure); experiment: Vasodilating activity: weakening of the carotid occlusion (CSE) reflex blood pressure rise in anesthetized rabbits; format: in vivo, rabbit; settings: for ED (30 mm Hg): Oryctolagus cuniculus, iv; for BQ (ID50 fcor / ED-30 mm Hg): ratio of beta-blocking ID50 to vasodilating ED-30
Protocol: Rabbits were anesthetized with 26%-urethane 5 ml/kg i.v. For a continual measurement of the arterial blood pressure a catheter was implanted into the Arteria femoralis. The blood pressure was measured by means of an electromechanical pressure transducer (Statham P 23/Db). The impulses were registered on a direct printer and after calibration evaluated with a mercury manometer. After determining the starting value, both carotid arteries (Aa. carotides) were occluded for 2 min and thereby the blood pressure temporarily raised (Carotis-Sinus-Relief Reflex-CSE). Following that, the substances were injected in increasing doses and 8 min. later the CSE reflex induced again. In periods of 15 min each, in logarithmically rising dosage (factor 2), the test substance was injected again and the CSE value induced again. Substances which under these conditions weaken the rise of the blood pressure under CSE can be regarded as vasodilating. To estimate the blood pressure lowering quality, the dose was calculated which weakens the CSE reflex by 30 mm Hg (ED-30 mm Hg).

[3] = Tolerability of i.v. doses; settings: in vivo, iv
[4] = dose weakening the CSE reflex by 30 mm Hg, anesthetized rabbits, read-out: Vasodilatation CSE ED-30
[5] = statement in text on reference substances, read-out: ED-30 (vasodilating quality)
[6] = read-out: Vasodilatation CSE ED-30

SMILES	beta-blocking activity (in words) [1]	β1-Blockade ID30 fcor [1]	β1-Blockade ID50 fcor [1]	vasodilating quality (in words) [2]	ED (30 mm Hg) [2, 4] [mg/kg]	ED (30 mm Hg) [2, 5] [mg/kg]	BQ (ID50 fcor / ED-30 mm Hg) [2]	ED (30 mm Hg) [2, 6] [mg/kg]	ED (30 mm Hg) ([2]; read-out: ED-30 (vasodilating quality)) [mg/kg]	MTD ([3]; not tolerated at all, read-out: dose above which not tolerated at all) [mg/kg]	MTD ([3]; poorly tolerated, read-out: dose above which poorly tolerated) [mg/kg]
COc1ccc(CCNCC(O)COc2cccc3c2CC(=O)N3)cc1 (stereo not drawn) [BM 12.946, 4-<2-hydroxy-3-[2-(4-methoxyphenyl)ethylamino]propoxy>oxindol, reference compound]	potent beta-blockers	46 µg/kg	188 µg/kg	do not have or at least do not have any relevantly vasodilating quality	9.13	> 9	0,02	–	–	–	–
CC(C)NCC(O)COc1cccc2c1CC(=O)N2 (stereo not drawn) [BM 14.171, 4-(2-hydroxy-3-isopropylaminopropoxy)oxindol, reference compound]	potent beta-blockers	1,2 mcg/kg	4,3 mcg/kg	do not have or at least do not have any relevantly vasodilating quality	11.6	> 9	0,0004	–	–	–	–
CC(C)NCC(O)COc1cccc2c1C(=Cc1ccccc1O)C(=O)N2 (stereo not drawn) [Example 1a, 4-(2-hydroxy-3-isopropylaminopropoxy)-3-(2-hydroxybenzylidene)-indolin-2-one]	–	98 µg/kg	317 µg/kg	–	2.71	–	0,12	–	–	–	–
CSc1ccc(C=C2C(=O)Nc3cccc(OCC(O)CNC(C)C)c32)c(O)c1 (stereo not drawn) [Example 1d, 4-(2-hydroxy-3-isopropylaminopropoxy)-3-(2-hydroxy-4-methylthiobenzylidene)-indolin-2-one]	–	21 µg/kg	46 µg/kg	–	1.48	–	0,03	–	–	–	–
O=C(O)c1ccccc1.O=C1Nc2cccc(OCC(O)CNCCOc3ccc(O)cc3)c2C1=Cc1ccccc1O (stereo not drawn) [Example 1p, 4-{2-hydroxy-3-[2-(4-hydroxyphenoxy)-ethylamino]-propoxy}-3-(2-hydroxybenzylidene)-indolin-2-one benzoate]	–	192 µg/kg	932 µg/kg	–	–	–	1,24	0.75	–	–	–
O=C1Nc2cccc(OCC(O)CNCCOc3ccc(O)cc3)c2C1=Cc1ccccc1C(=O)O (stereo not drawn) [Example 1r, 4-{2-hydroxy-3-[2-(4-hydroxyphenoxy)-ethylamino]-propoxy}-3-(2-carboxybenzylidene)-indolin-2-one]	–	205 µg/kg	823 µg/kg	–	2.03	–	0,41	–	–	–	–
O=C1Nc2cccc(OCC(O)CNCCOc3ccccc3)c2C1=Cc1ccn[nH]1 (stereo not drawn) [Example 1u, 4-[2-hydroxy-3-(2-phenoxyethylamino)-propoxy]-3-(pyrazol-5-yl)-methyleneindolin-2-one]	–	9,9 mcg/kg	58 µg/kg	–	0.331	–	0,18	–	–	–	–
O=C1Nc2cccc(OCC(O)CNCCOc3ccc(O)cc3)c2C1Cc1ccccc1O (stereo not drawn) [Example 7d, 4-{2-hydroxy-3-[2-(4-hydroxyphenoxy)-ethylamino]-propoxy}-3-(2-hydroxybenzyl)-indolin-2-one cyclohexylsulphaminate]	–	27 µg/kg	85 µg/kg	–	0.97	–	0,09	–	–	–	–
O=C(O)/C=C/C(=O)O.O=C1Nc2cccc(OCC(O)CNCCOc3ccc(O)cc3)c2C1Cc1ccn[nH]1 (stereo not drawn) [Example 7e, 4-{2-hydroxy-3-[2-(4-hydroxyphenoxy)-ethylamino]-propoxy}-3-(pyrazol-5-yl-methyl)-indolin-2-one fumarate]	–	65 µg/kg	254 µg/kg	–	0.54	–	0,47	–	–	–	–
O=C(O)/C=C/C(=O)O.O=C1Nc2cccc(OCC(O)CNCCOc3ccccc3)c2C1Cc1ccn[nH]1 (stereo not drawn) [Example 7f, 4-[2-hydroxy-3-(2-phenoxyethylamino)-propoxy]-3-(pyrazol-5-yl-methyl)-indolin-2-one fumarate]	–	334 µg/kg	1020 µg/kg	–	0.43	–	2,37	–	–	–	–
CC(C)NCC(O)COc1cccc2ccccc12 (stereo not drawn) [Propranolol, 1-(isopropylamino)-3-(1-naphthyloxy)-2-propanol, reference compound]	potent beta-blockers	126 µg/kg	–	do not have or at least do not have any relevantly vasodilating quality	–	–	0,01	30	> 9	> 30	> 10
